The record followed here is EPA's ToxValDB 9.5 (doi:10.2903/j.efsa.2010.1598).

A word on the NOAEL: it is the highest dose or exposure tested at which no adverse effect was seen.

One data set has as its system Ictalurus punctatus. The settings on record: acute; duration: 96 hours; mortality.
The next data set relates to Oncorhynchus mykiss. To be noted: chronic/long-term; duration: 21 days; growth.
A further data set relates to Canidae. To be noted: acute; oral; Dog Other; mortality.
A further data set deals with Apis mellifera. To be noted: acute; dermal; mortality.
A further data set has as its system Colinus virginianus. To be noted: acute; oral; mortality.
The next data set deals with Daphnia magna. To be noted: chronic/long-term; duration: 21 days; reproduction.
The next data set concerns Oryctolagus sp. The settings on record: developmental; development.
Another data set has as its system Bibionidae. To be noted: chronic/long-term; duration: 28 days.

Converted amounts (≈) assume the structure as drawn.

On to `COC(=O)Nc1nc2ccccc2[nH]1` [Carbendazim], for which the LC50 in the data set on Ictalurus punctatus was determined as 0.019 µg/mL (≈ 0.0994 µM); in the data set on Tagia sp. (acute, duration: 14 days, mortality) it was 5.4 mg/kg. In addition, the NOEC with Tagia sp. (chronic/long-term, duration: 56 days) turned out to be 1 mg/kg; with Oncorhynchus mykiss, 0.0032 mg/L; in the data set with Daphnia magna it was 0.0015 mg/L; with Bibionidae it was 0.0133 mg/L. The NOEL stood at 22.5 mg/kg-day in the data set with Rattus norvegicus (chronic, organ weight) and 24.6 mg/kg-day in the data set on Anas platyrhynchos (reproductive). Besides, the NOAEL with Rattus norvegicus (developmental, development) was 10 mg/kg-day; with Oryctolagus sp., 10 mg/kg-day. Besides, the LD50 is above 5000 mg/kg-day in the data set with Canidae; above 50 µg/piece in the data set with Apis mellifera; above 2250 mg/kg-day in the data set on Colinus virginianus; 615 mg/kg-day in the data set on Anas platyrhynchos (short-term, oral, feed, mortality).
